Measurements: PMC5025651, “Reprofiled anthelmintics abate hypervirulent stationary-phase Clostridium difficile” (Scientific Reports, 2016)
≈ marks a conversion by molar mass, not a printed value.

Key:
[1] = tested on: A. baumannii M2; assay: MIC by broth microdilution; assay type: cell-based; details: Acinetobacter baumannii; A. baumannii M2; CAMHB, aerobic; duplicate; read-out: MIC
[2] = tested on: B. longum subsp. longum Strain 44B; assay: MIC by broth microdilution; assay type: cell-based; details: Bifidobacterium longum; B. longum subsp. longum 44B; LSM broth, anaerobic; duplicate; read-out: MIC
[3] = tested on: panel of obligate aerobes, facultative anaerobes and obligate anaerobes; assay: Antibacterial spectrum, MIC against a panel of bacteria; assay type: cell-based; details: whole panel of Table S3
[4] = tested on: S. aureus RN4220; assay: MIC by broth microdilution; assay type: cell-based; details: Staphylococcus aureus, CAMHB, aerobic, duplicate
[5] = tested on: C. difficile strain 4118 (CD4118, ATCC BAA-1870, ribotype 027); assay: MIC by broth microdilution; assay type: cell-based, Clostridium difficile
[6] = tested on: P. aeruginosa PAO1; assay: MIC by broth microdilution; assay type: cell-based; details: Pseudomonas aeruginosa; P. aeruginosa PAO1; CAMHB, aerobic; duplicate; read-out: MIC
[7] = tested on: B. fragilis Strain CL05T00C42; assay: MIC by broth microdilution; assay type: cell-based; details: Bacteroides fragilis; B. fragilis CL05T00C42; supplemented Brucella broth, anaerobic; duplicate; read-out: MIC
[8] = tested on: L. plantarum ATCC 8014; assay: MIC by broth microdilution; assay type: cell-based; details: Lactiplantibacillus plantarum, ATCC8014; L. plantarum ATCC 8014; CAMHB with 5% laked horse blood, ~48 h; duplicate; read-out: MIC
[9] = tested on: B. thetaiotaomicron ATCC 29148; assay: microbe, parasite or virus in culture; assay type: cell-based; details: Bacteroides thetaiotaomicron, ATCC29148; B. thetaiotaomicron ATCC 29148; supplemented Brucella broth, anaerobic; duplicate; read-out: MIC
[10] = tested on: C. clostridioforme ATCC 25537; assay: MIC by broth microdilution; assay type: cell-based, Clostridium clostridioforme; details: Clostridium, ATCC25537; C. clostridioforme ATCC 25537; BHIS, anaerobic; duplicate; read-out: MIC
[11] = tested on: L. reuteri Strain CF48-3A; assay: MIC by broth microdilution; assay type: cell-based, Lactobacillus reuteri; details: Limosilactobacillus reuteri; L. reuteri CF48-3A; CAMHB with 5% laked horse blood, ~48 h; duplicate; read-out: MIC
[12] = tested on: B. breve Strain EX336960VC19; assay: MIC by broth microdilution; assay type: cell-based; details: Bifidobacterium breve; B. breve EX336960VC19; LSM broth, anaerobic; duplicate; read-out: MIC
[13] = tested on: P. nigrescens ATCC 33563; assay: MIC by broth microdilution; assay type: cell-based; details: Prevotella nigrescens, ATCC33563; P. nigrescens ATCC 33563; supplemented Brucella broth, anaerobic; duplicate; read-out: MIC
[14] = tested on: C. sporogenes ATCC 15579; assay: MIC by broth microdilution; assay type: cell-based; details: Clostridium sporogenes, ATCC15579, BHIS, anaerobic, duplicate
[15] = tested on: L. johnsonii Strain 135-1-CHN; assay: MIC by broth microdilution; assay type: cell-based; details: Lactobacillus johnsonii, STRAIN1351CHN; L. johnsonii 135-1-CHN; CAMHB with 5% laked horse blood, ~48 h; duplicate; read-out: MIC
[16] = tested on: C. difficile strain 630 (CD630, ATCC BAA-1382-FZ, ribotype 012); assay: MIC by broth microdilution; assay type: cell-based, Clostridium difficile
[17] = tested on: S. epidermidis 1457; assay: MIC by broth microdilution; assay type: cell-based; details: Staphylococcus epidermidis; S. epidermidis 1457; CAMHB, aerobic; duplicate; read-out: MIC
[18] = tested on: P. distasonis ATCC 8503; assay: MIC by broth microdilution; assay type: cell-based; details: Parabacteroides distasonis, ATCC8503; P. distasonis ATCC 8503; supplemented Brucella broth, anaerobic; duplicate; read-out: MIC
[19] = tested on: B. subtilis ATCC 6051; assay: MIC by broth microdilution; assay type: cell-based; details: Bacillus subtilis, ATCC6051; B. subtilis ATCC 6051; CAMHB, aerobic; duplicate; read-out: MIC
[20] = tested on: C. difficile isolate 20110960 (ribotype 017); assay: MIC by broth microdilution; assay type: cell-based, Clostridium difficile; details: Clostridioides difficile; isolate 20110960, ribotype 017; duplicate; read-out: MIC
[21] = tested on: C. difficile isolate 20121190 (ribotype 126); assay: MIC by broth microdilution; assay type: cell-based, Clostridium difficile; details: Clostridioides difficile; isolate 20121190, ribotype 126; duplicate; read-out: MIC
[22] = tested on: 16 C. difficile isolates; assay: MIC by broth microdilution, summary over 16 C. difficile isolates; assay type: cell-based, Clostridium difficile; details: n = 2; for MIC50 / MIC90: Clostridioides difficile; for MIC50: MIC at which 50% of the 16 isolates are inhibited, read-out: MIC50; for MIC90: MIC at which 90% of the 16 isolates are inhibited, read-out: MIC90; for MIC Range: range over 16 C. difficile isolates
[23] = tested on: C. difficile isolate 20120016 (ribotype 019); assay: MIC by broth microdilution; assay type: cell-based, Clostridium difficile; details: Clostridioides difficile; isolate 20120016, ribotype 019; duplicate; read-out: MIC
[24] = tested on: C. difficile isolate 20110986 (ribotype 078); assay: MIC by broth microdilution; assay type: cell-based, Clostridium difficile; details: Clostridioides difficile; isolate 20110986, ribotype 078; duplicate; read-out: MIC
[25] = tested on: C. difficile isolate 20110961 (ribotype A12); assay: MIC by broth microdilution; assay type: cell-based, Clostridium difficile; details: Clostridioides difficile; isolate 20110961, ribotype A12; duplicate; read-out: MIC
[26] = tested on: C. difficile isolate 20110869 (ribotype 001_072); assay: MIC by broth microdilution; assay type: cell-based, Clostridium difficile; details: Clostridioides difficile; isolate 20110869, ribotype 001_072; duplicate; read-out: MIC
[27] = tested on: C. difficile isolate 20121412 (ribotype 047); assay: MIC by broth microdilution; assay type: cell-based, Clostridium difficile; details: Clostridioides difficile; isolate 20121412, ribotype 047; duplicate; read-out: MIC
[28] = tested on: C. difficile isolate 20110973 (ribotype 106); assay: MIC by broth microdilution; assay type: cell-based, Clostridium difficile; details: Clostridioides difficile; isolate 20110973, ribotype 106; duplicate; read-out: MIC
[29] = tested on: C. difficile isolate 20100422 (ribotype 054); assay: MIC by broth microdilution; assay type: cell-based, Clostridium difficile; details: Clostridioides difficile; isolate 20100422, ribotype 054; duplicate; read-out: MIC
[30] = tested on: C. difficile isolate 20111163 (ribotype 024); assay: MIC by broth microdilution; assay type: cell-based, Clostridium difficile; details: Clostridioides difficile; isolate 20111163, ribotype 024; duplicate; read-out: MIC
[31] = tested on: C. difficile isolate 20110740 (ribotype 018); assay: MIC by broth microdilution; assay type: cell-based, Clostridium difficile; details: Clostridioides difficile; isolate 20110740, ribotype 018; duplicate; read-out: MIC
[32] = tested on: C. difficile isolate 20110566 (ribotype 020); assay: MIC by broth microdilution; assay type: cell-based, Clostridium difficile; details: Clostridioides difficile; isolate 20110566, ribotype 020; duplicate; read-out: MIC
[33] = tested on: C. difficile isolate 20100584 (ribotype 014); assay: MIC by broth microdilution; assay type: cell-based, Clostridium difficile; details: Clostridioides difficile; isolate 20100584, ribotype 014; duplicate; read-out: MIC
[34] = Hemolysis assay; assay type: cell-based; details: sheep, sheep red blood cells (3% suspension), pH 7.4; 32 µg/mL, 1 h, 37 °C; 1% Triton X-100 positive control; triplicate; read-out: Hemolysis (%)
Description: Sheep red blood cells (Innovative Research, Novi, MI, USA) were washed three times with PBS pH 7.4. A 3% cell suspension in PBS (100 μL) was added to test compounds in PBS (100 μL, to a final concentration of 32 μg/mL), and then incubated at 37 °C for 1 h. The plate was centrifuged at 500 × g for 10 min, and supernatants (100 μL) were transferred to a clean 96-well plate. Hemolysis was determined by measuring absorbance at 540 nm, with 1% Triton X-100 as the positive control and 0.5% DMSO in PBS as the negative control. Hemolysis assays were performed in triplicate.

[35] = tested on: C. difficile isolate 20110742 (ribotype 002); assay: MIC by broth microdilution; assay type: cell-based, Clostridium difficile; details: Clostridioides difficile; isolate 20110742, ribotype 002; duplicate; read-out: MIC

O=C(Nc1ccc(Oc2ccc(Cl)cc2)cc1)c1cc(I)cc(I)c1 [Compound 5i]
MIC [1]: > 32 µg/mL
MIC [2]: > 32 µg/mL
antibacterial activity (in words) [3]: lacked antibacterial activity
MIC [4]: > 32 µg/mL
MIC ([5]; Clostridioides difficile, ATCCBAA1870, BHIS broth, anaerobic, 20–24 h, n = 2, read-out: MIC C. difficile 4118): > 32 µg/mL
in vitro activity against CD4118 (in words) ([5]; growth inhibition, MIC assay): inactive
MIC [6]: > 32 µg/mL
MIC [7]: > 32 µg/mL
MIC [8]: > 32 µg/mL
MIC [9]: > 32 µg/mL
MIC [10]: > 32 µg/mL
MIC [11]: > 32 µg/mL
MIC [12]: > 32 µg/mL
MIC [13]: > 32 µg/mL
MIC [14]: > 32 µg/mL
MIC [15]: > 32 µg/mL
MIC ([16]; Clostridioides difficile, ATCCBAA1382, BHIS broth, anaerobic, 20–24 h, n = 2): > 32 µg/mL
in vitro activity against CD630 (in words) ([16]; growth inhibition, MIC assay): inactive
MIC [17]: > 32 µg/mL
MIC [18]: > 32 µg/mL
MIC [19]: > 32 µg/mL

O=C(Nc1ccc([N+](=O)[O-])cc1Cl)c1cc(Cl)ccc1O [Niclosamide, niclosamide]
MIC [20]: 1 µg/mL (≈ 3.06 µM)
MIC [21]: 0.5 µg/mL (≈ 1.53 µM)
MIC50 [22]: 1 µg/mL (≈ 3.06 µM)
MIC90 [22]: 2 µg/mL (≈ 6.11 µM)
MIC Range [22]: 0.5 to 4 µg/mL
MIC [23]: 0.5 µg/mL (≈ 1.53 µM)
MIC [24]: 1 µg/mL (≈ 3.06 µM)
MIC [25]: 1 µg/mL (≈ 3.06 µM)
MIC [26]: 2 µg/mL (≈ 6.11 µM)
MIC [27]: 1 µg/mL (≈ 3.06 µM)
MIC [28]: 1 µg/mL (≈ 3.06 µM)
MIC [29]: 0.5 µg/mL (≈ 1.53 µM)
MIC [30]: 1 µg/mL (≈ 3.06 µM)
MIC [31]: 1 µg/mL (≈ 3.06 µM)
MIC [32]: 1 µg/mL (≈ 3.06 µM)
MIC [33]: 0.5 µg/mL (≈ 1.53 µM)
hemolysis at 1 h, 32 µg/mL [34]: < 1%
MIC [35]: 1 µg/mL (≈ 3.06 µM)

O=C(Nc1cc(Cl)cc(Cl)c1O)c1c(O)c(Cl)cc(Cl)c1Cl [Oxyclozanide, oxyclozanide]
MIC [20]: 0.5 µg/mL (≈ 1.25 µM)
MIC [21]: 1 µg/mL (≈ 2.49 µM)
MIC50 [22]: 1 µg/mL (≈ 2.49 µM)
MIC90 [22]: 1 µg/mL (≈ 2.49 µM)
MIC Range [22]: 0.5 to 2 µg/mL
MIC [23]: 0.5 µg/mL (≈ 1.25 µM)
MIC [24]: 1 µg/mL (≈ 2.49 µM)
MIC [25]: 1 µg/mL (≈ 2.49 µM)
MIC [26]: 0.5 to 1 µg/mL (≈ 1.25 to 2.49 µM)
MIC [27]: 2 µg/mL (≈ 4.98 µM)
MIC [28]: 1 µg/mL (≈ 2.49 µM)
MIC [29]: 1 µg/mL (≈ 2.49 µM)
MIC [30]: 0.5 µg/mL (≈ 1.25 µM)
MIC [31]: 1 µg/mL (≈ 2.49 µM)
MIC [32]: 1 µg/mL (≈ 2.49 µM)
MIC [33]: 1 µg/mL (≈ 2.49 µM)
hemolysis at 1 h, 32 µg/mL [34]: < 1%
MIC [35]: 1 µg/mL (≈ 2.49 µM)
